Data reported in article PMC10992382, “Discovery of a readily heterologously expressed Rubisco from the deep sea with potential for CO2 capture” (Bioresources and Bioprocessing, 2021).

Molecular target: T1, 7002 Rubisco (Picosynechococcus sp. PCC 7002, UniProt Q44176)
T1 construct: gene cbbL; C-terminal His6 tag on large subunit; large and small subunits co-expressed with chaperone RbcX from pET30a in E. coli BL21(DE3); hexadecamer; with Ribulose bisphosphate carboxylase small subunit
Experiment: […]-CABP active-site binding assay
Conditions: labelled compound; active-site titration only

T1 sequence (Q44176 whole entry): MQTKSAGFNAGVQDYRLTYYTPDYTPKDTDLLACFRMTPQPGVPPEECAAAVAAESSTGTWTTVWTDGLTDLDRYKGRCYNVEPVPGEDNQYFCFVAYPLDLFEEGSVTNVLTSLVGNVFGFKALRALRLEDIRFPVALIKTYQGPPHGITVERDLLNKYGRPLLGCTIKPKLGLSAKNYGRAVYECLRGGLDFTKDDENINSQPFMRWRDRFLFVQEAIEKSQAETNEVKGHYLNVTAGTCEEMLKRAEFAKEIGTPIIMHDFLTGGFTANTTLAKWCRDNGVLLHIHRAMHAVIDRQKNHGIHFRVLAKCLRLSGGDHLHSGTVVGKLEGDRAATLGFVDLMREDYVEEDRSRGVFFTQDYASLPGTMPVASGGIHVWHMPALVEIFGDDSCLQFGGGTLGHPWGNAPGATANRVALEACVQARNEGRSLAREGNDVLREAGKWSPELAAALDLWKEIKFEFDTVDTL
T1 sequence (Q44178 whole entry, further chain): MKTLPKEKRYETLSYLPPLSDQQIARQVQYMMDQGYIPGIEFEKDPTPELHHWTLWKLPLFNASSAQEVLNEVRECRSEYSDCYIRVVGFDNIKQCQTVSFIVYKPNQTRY

Q: O=C(O)[C@@](O)(COP(=O)(O)O)[C@H](O)[C@H](O)COP(=O)(O)O [CABP, 2-carboxyarabinitol-1,5-diphosphate] was tested. Which “14C-CABP active-site binding assay” value did it give?
A: Active sites of Rubisco in purified enzymes were determined as reported
